# Reference: paper PMC12027554, “Inhibition of ABCG2 by SCO-101 Enhances Chemotherapy Efficacy in Cancer” (International Journal of Molecular Sciences, 2025)
# Columns and labels:
# [1] = system: SNU-5 cells; experiment: Cell viability assay (CellTiter-Glo), SNU-5; format: cell-based; details: Homo sapiens, 96 h
# Procedure: Cells were seeded at a density of 0.2–1 × 10^4 cells/well into 96-well plates. One day after seeding, treatments were performed in triplicate for 72 h, or as otherwise indicated in the relevant panel/figure legend and kept at 37 °C/5% CO2. Growth medium alone (“untreated” cells) or DMSO was used as a control.
# For SCH, SNU-5, and MKN45 cells, 50 μL of CellTiter-Glo® Reagent (Promega; Madison, WI, USA) was added to each well at the end of the treatments. The content was mixed for 5 min to facilitate cell lysis and plates incubated at room temperature for 10 min to stabilize luminescent signals, which were then recorded using an EnVision Multi Label Reader (PerkinElmer; Waltham, MA, USA).
# Background values were subtracted prior to further analysis. The percentage of cell viability was expressed as relative values versus untreated cells as determined by the various assays. EC50/IC50 values were calculated using GraphPad Prism (v10.4.1) and the in-built non-linear regression [log (inhibitor) vs. response—variable slope (four parameters)] calculation. […] Synergy scores were calculated using the ZIP model, which takes the advantages of both the Loewe additivity and the Bliss independence models, aiming at a systematic assessment of various types of drug interaction patterns that may arise in a high-throughput drug combination screening.
# [2] = set-up: method as in earlier work; details: oral SCO-101 in combination with FOLFIRI; cited from earlier work
# [3] = molecular target: MDR1/ABCB1 (Homo sapiens, UniProt P08183); experiment: Efflux transporter inhibition, vesicular uptake into inside-out membrane vesicles (ABCB1); format: biochemical; details: 1 μM N-methyl-quinidine
# Sequence of MDR1/ABCB1 (P08183 whole entry): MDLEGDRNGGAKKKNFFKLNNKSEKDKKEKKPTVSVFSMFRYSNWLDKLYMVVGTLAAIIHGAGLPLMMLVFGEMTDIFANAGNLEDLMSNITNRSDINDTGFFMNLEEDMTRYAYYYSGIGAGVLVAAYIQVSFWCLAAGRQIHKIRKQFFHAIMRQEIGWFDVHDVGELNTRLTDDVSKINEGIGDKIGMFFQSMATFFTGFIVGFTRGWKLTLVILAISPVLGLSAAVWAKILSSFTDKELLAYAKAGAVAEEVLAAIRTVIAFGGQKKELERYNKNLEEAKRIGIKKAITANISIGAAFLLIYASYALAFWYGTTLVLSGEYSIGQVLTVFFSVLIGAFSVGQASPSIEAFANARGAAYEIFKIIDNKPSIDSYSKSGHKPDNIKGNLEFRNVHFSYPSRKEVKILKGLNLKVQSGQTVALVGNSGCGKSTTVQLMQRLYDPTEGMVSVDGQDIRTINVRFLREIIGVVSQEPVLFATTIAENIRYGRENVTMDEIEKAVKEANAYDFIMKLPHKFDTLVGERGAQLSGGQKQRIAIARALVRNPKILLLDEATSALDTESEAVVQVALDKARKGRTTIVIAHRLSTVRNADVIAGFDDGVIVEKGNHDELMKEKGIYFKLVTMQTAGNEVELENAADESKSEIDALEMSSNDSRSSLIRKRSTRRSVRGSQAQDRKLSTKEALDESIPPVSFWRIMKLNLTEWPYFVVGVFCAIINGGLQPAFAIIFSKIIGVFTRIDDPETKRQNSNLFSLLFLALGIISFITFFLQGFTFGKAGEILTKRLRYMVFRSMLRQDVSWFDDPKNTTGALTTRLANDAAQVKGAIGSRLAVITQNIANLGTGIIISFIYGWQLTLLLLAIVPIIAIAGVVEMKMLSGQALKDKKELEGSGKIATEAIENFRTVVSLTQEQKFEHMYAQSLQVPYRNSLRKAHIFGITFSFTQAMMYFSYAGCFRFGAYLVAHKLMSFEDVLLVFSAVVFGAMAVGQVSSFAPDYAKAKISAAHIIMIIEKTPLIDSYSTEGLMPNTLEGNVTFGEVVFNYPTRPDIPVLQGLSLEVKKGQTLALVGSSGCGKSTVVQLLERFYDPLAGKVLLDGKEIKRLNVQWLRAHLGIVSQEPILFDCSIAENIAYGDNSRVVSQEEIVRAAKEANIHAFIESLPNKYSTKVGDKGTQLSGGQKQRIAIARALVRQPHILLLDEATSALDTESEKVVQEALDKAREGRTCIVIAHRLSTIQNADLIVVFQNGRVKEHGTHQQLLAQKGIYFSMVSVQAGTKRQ
# Procedure: Efflux transporter inhibition was evaluated by measuring vesicular uptake into inside-out membrane vesicles (SOLVO biotechnology, Budapest, Hungary) expressing a single human ABC transporter (0.67 mg/mL ABCB1; 0.67 mg/mL ABCC2; 0.33 mg/mL ABCG2 membrane protein) of a probe substrate (1 μM N-methyl-quinidine for ABCB1; 100 μM 5(6)-carboxy-2′,7′-dichlorofluorescein for ABCC2; 1 μM Eestrone-3-sulfate for ABCG2) in the presence of SCO-101 with and without ATP (4 mM) in 96-well plate format. Control solvent and control inhibitors (4–60 μM verapamil for […]; 1–15 μM sulfasalazine for ABCG2; 5.5–150 μM benzbromarone for ABCC2) were incubated in parallel. Vesicular uptake was conducted at 37 °C in incubation buffer (10 mM Tris-HCl, pH 7.4, 10 mM MgCl2, 250 mM sucrose) and terminated after 1 min (ABCB1 and ABCG2) or 5 min (ABCC2) by adding ice-cold washing buffer (10 mM Tris-HCl, pH 7.4, 100 mM NaCl, 250 mM sucrose). […] Probe quantification was conducted using LC-MS/MS peak areas (solvent control with ATP − AMP = 100%). […] The remaining transporter activity % was calculated according to the formula below, and fitting was performed using GraphPad Prism: A%=AATP,sample−AAMP,sample/AATP,solvent−AAMP,solvent
# [4] = system: HT29SN-38 cells; experiment: Cellular dye efflux assay (Hoechst 33342), resistant cells; format: cell-based, human; details: SCO-101 20 µM, Ko-143 1 µM, PSC833 1 µM
# Procedure: Twenty-four hours before the experiments, cells were seeded into 96-well Nunclon^TM plates at a density of 6000 (HT29), 7000 (PANC-1) or 8000 (LoVo) cells/well. The following day, cells were treated in triplicate with the relevant drugs at the indicated concentrations for 1 h. Next, 5 μg/mL Hoechst 33342 was added to the wells, and plates incubated at 37 °C for 30 min^−1 h. Cells were washed with cold PBS, treatments re-added and plates re-incubated at 37 °C for 30 min to 1 h. Plates were analyzed using a Celigo® (Nexcelom Bioscience, Lawrence, MA, USA) imaging cytometer. Data are expressed as percentages of fluorescence intensity, calculated through the following formula: % fluorescence intensity=Mean fluorescence intensity of sample/Mean fluorescence intensity of parental control×100
# Fluorescent images were captured with an Olympus® IX71/TH4-200 microscope equipped with an Olympus® DP72 camera (Shinjuku, Tokyo, Japan), and cells were seeded at a 1.5 × 10^5 cells/well density and treated as described above.
# [5] = molecular target: T1, ABCG2 (Homo sapiens, UniProt Q9UNQ0); experiment: Bidirectional transport of estrone-3-sulfate across Caco-2 cell monolayers; format: cell-based; details: Caco-2 monolayers, 50 µM SCO-101
# T1 sequence (Q9UNQ0 1-655): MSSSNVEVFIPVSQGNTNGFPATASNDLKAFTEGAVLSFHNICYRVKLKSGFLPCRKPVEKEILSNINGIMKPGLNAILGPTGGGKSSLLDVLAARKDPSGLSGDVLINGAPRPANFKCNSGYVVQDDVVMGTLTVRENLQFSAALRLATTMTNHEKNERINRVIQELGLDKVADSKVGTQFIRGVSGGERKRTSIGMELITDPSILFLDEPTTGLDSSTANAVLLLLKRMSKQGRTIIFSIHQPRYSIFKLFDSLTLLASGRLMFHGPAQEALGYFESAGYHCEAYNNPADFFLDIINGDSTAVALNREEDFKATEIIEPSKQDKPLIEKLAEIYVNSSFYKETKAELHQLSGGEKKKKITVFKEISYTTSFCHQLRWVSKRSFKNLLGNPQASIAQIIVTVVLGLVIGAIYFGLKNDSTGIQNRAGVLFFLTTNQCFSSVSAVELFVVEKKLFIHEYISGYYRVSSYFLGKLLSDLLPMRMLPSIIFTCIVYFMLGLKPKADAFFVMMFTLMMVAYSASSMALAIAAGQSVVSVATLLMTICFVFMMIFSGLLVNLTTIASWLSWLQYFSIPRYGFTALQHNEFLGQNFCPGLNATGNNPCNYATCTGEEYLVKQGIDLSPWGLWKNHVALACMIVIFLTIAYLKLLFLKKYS
# Procedure: Bidirectional transport experiments (basolateral-to-apical and apical-to-basolateral) with the ABCG2 substrate estrone-3-sulfate and the MDR1/ABCB1 substrate digoxin were performed in Caco-2 cell monolayers as previously described.
structure (smiles),measurement,setting,value
"O=C(Nc1cc(C(F)(F)F)cc(C(F)(F)F)c1)Nc1ccc(Br)cc1-c1nnn[nH]1 [SCO-101, N-[4-Bromo-2-(1H-1,2,3,4-tetrazol-5-yl)phenyl]-N′-[3,5-bis(trifluoromethyl)phenyl]urea]",IC50,[1],> 50 µM
same,safety,[2],safe
same,IC50,[3],16.1 µM
same,H33342 dye accumulation,[4],restored
same,basolateral-to-apical transport of the ABCG2 substrate estrone-3-sulfate,[5],completely blocked
